# From article PMC3574217 (Journal of medicinal chemistry, 2013)
# Assays:
# [1] = system: adult WT murine cardiac ventricular myocytes; experiment: Contractile response; type: cell-based, mouse; settings: vs control basal condition, P<0.05
# [2] = 24 h
# cardiac P2X4R = settings: cardiomyocytes obtained from the CSQ mouse; cited from earlier work
# aorta ring preparations = settings: cited from earlier work
# [3] = system: CSQ-overexpressing mice with heart failure; settings: chronic administration; cited from earlier work
# [4] = system: LAD ligation model of ischemic heart failure in mice; experiment: LAD ligation ischemic heart failure model, echocardiography-derived FS; type: in vivo, mouse; settings: infusion 28 days
# [5] = system: CSQ-overexpressing mice with heart failure; experiment: CSQ-overexpressing mouse model of heart failure; type: in vivo
# [6] = system: LAD ligation model of ischemic heart failure in mice; experiment: Ex vivo isolated working heart preparation; type: in vivo, mouse; settings: infusion 28 days
# [7] = Stability in rat liver microsomes; settings: 24 h, 37°C
# Stability in rat plasma = settings: 24 h, 37°C
structure (smiles),measurement,setting,value
"Nc1nc(Cl)nc2c1ncn2[C@H]1[C@H](O)[C@H](O)[C@@]2(COP(=O)(O)O)C[C@@H]12 [Compound 1, (1’S,2’R,3’S,4’R,5’S)-4-(6-amino-2-chloro-9H-purin-9-yl)-1-[phosphoryloxy-methyl]bicyclo[3.1.0]hexane-2,3-diol]",contraction shortening (CS),[1],modest increase in contraction shortening
same,stability to acidic conditions,"[2]; pH 1.5, 37°C, data not shown",stable
same,P2X-like current in cardiomyocytes,cardiac P2X4R,induced a current that is characteristic of the action of the cardiac P2X4R
same,vasodilator action,aorta ring preparations,devoid of any vasodilator action
same,cardioprotection in CSQ mouse model,[3],rescued the hypertrophic and heart failure phenotype
"Nc1nc(Cl)nc2c1ncn2[C@H]1[C@H](O)[C@H](O)[C@]2(CCP(=O)(O)O)C[C@H]12 [Compound 3, (1’S,2’R,3’S,4’R,5’S)-4’-(6-amino-2-chloropurin-9-yl)-2’,3’-(dihydroxy)-1’-(phosphonoethylene)-bicyclo[3.1.0]hexane]",contraction shortening (CS),[1],modest increase in contraction shortening
same,cardioprotection in CSQ mouse model,[3],protective
"[2H]C([2H])(OP(=O)(O)O)[C@@]12C[C@@H]1[C@@H](n1cnc3c(N)nc(Cl)nc31)[C@H](O)[C@@H]2O [Compound 4, (1’S,2’R,3’S,4’R,5’S)-4-(6-Amino-2-chloro-9H-purin-9-yl)-1-[phosphoryloxydideuteromethyl]-2,3-diol-bicyclo[3.1.0]hexane]","protection in the LAD model (increase in FS), in words",[4],significantly protective
"Nc1nc(Cl)nc2c1ncn2[C@H]1[C@H](O)[C@H](O)[C@]2(CSP(=O)(O)O)C[C@H]12 [Compound 5, (1’S,2’R,3’S,4’R,5’S)-4-(6-Amino-2-chloro-purin-9-yl)-2,3-(dihydroxy)-1-[monophosporothioate]-bicyclo-[3.1.0]hexane]","cardioprotection in CSQ model, in words",[5]; infusion,could protect
same,"protection in ex vivo working heart (+dP/dt), in words",[6],able to improve function
"Nc1nc(I)nc2c1ncn2[C@H]1[C@H](O)[C@H](O)[C@]2(CP(=O)(O)O)C[C@H]12 [Compound 6, (1’S,2’R,3’S,4’R,5’S)-4’-(6-Amino-2-iodoropurin-9-yl)-2’,3’-(dihydroxy)-1’-(phosphonomethylene)-bicyclo[3.1.0]hexane]","cardioprotection in CSQ model, in words",[5]; infusion,abolished protection
same,effect on FS in CSQ mice,"[5]; infusion, compared to vehicle",did not improve FS
same,"LV wall thickness in CSQ mice, in words",[5]; vs NS-infused CSQ mice,did not improve FS (Table S2) or prevent LV wall thinning
same,"protection in ex vivo working heart (+dP/dt), in words",[6],able to improve function
"CCOP(=O)(OCC)OC[C@@]12C[C@@H]1[C@@H](n1cnc3c(N)nc(Cl)nc31)[C@H](O)[C@@H]2O [Compound 7, (1’S,2’R,3’S,4’R,5’S)-4-(6-Amino-2-chloro-9H-purin-9-yl)-1-[(diethylphosphate)methyl]-2,3-(dihydroxy)-bicyclo[3.1.0]hexane]","cardioprotection in CSQ model, in words",[5]; infusion,cardioprotective activity was seen
same,"protection in the LAD model (increase in FS), in words",[4],highly protective
same,"protection in ex vivo working heart (+dP/dt), in words",[6],able to improve function
"CC(C)OP(=O)(OC[C@@]12C[C@@H]1[C@@H](n1cnc3c(N)nc(Cl)nc31)[C@H](O)[C@@H]2O)OC(C)C [Compound 8, (1’S,2’R,3’S,4’R,5’S)-4-(6-Amino-2-chloro-9H-purin-9-yl)-1-[(diisopropylphosphate)methyl]-2,3-(dihydroxy)-bicyclo[3.1.0]hexane]","protection in the LAD model (increase in FS), in words",[4],highly protective
"CC(C)(C)OP(=O)(OC[C@@]12C[C@@H]1[C@@H](n1cnc3c(N)nc(Cl)nc31)[C@H](O)[C@@H]2O)OC(C)(C)C [Compound 9, (1’S,2’R,3’S,4’R,5’S)-4-(6-Amino-2-chloro-9H-purin-9-yl)-2,3-(dihydroxy)-1-[(t-butylphosphate)methyl]-bicyclo[3.1.0]hexane]","protection in ex vivo working heart (+dP/dt), in words",[6],able to improve function
"[2H]C([2H])(OP(=O)(OCC)OCC)[C@@]12C[C@@H]1[C@@H](n1cnc3c(N)nc(Cl)nc31)[C@H](O)[C@@H]2O [Compound 10, (1’S,2’R,3’S,4’R,5’S)-4-(6-Amino-2-chloro-9H-purin-9-yl)-2,3-(dihydroxyl)-1-[(di-ethylphosphate)dideuteromethyl]bicyclo[3.1.0]hexane]","protection in the LAD model (increase in FS), in words",[4],did not fully protect
"CCOP(=O)(OCC)SC[C@@]12C[C@@H]1[C@@H](n1cnc3c(N)nc(Cl)nc31)[C@H](O)[C@@H]2O [Compound 11, (1’S,2’R,3’S,4’R,5’S)-4-(6-Amino-2-chloro-purin-9-yl)-1-[O,O-diethyl S-methyl phosphorothioate]-2,3-(dihydroxyl)-bicyclo-[3.1.0]hexane]","protection in the LAD model (increase in FS), in words",[4],protective
"CCOP(=S)(OCC)SC[C@@]12C[C@@H]1[C@@H](n1cnc3c(N)nc(Cl)nc31)[C@H](O)[C@@H]2O [Compound 13, (1’S,2’R,3’S,4’R,5’S)-4-(6-Amino-2-chloro-purin-9-yl)-1-[O,O-diethyl S-methyl phosphorodithioate]-2,3-(dihydroxyl)-bicyclo-[3.1.0]hexane]","protection in the LAD model (increase in FS), in words",[4],protective
"CCOP(=O)(C[C@@]12C[C@@H]1[C@@H](n1cnc3c(N)nc(Cl)nc31)[C@H](O)[C@@H]2O)OCC [Compound 14, Diethyl-(1’S,2’R,3’S,4’R,5’S)-4’-(6-amino-2-chloropurin-9-yl)-2’,3’-(hydroxy)-bicyclo[3.1.0]hexane phosphonate]","cardioprotection in CSQ model, in words",[5]; infusion,inactive
same,stability in the presence of microsomes from rat liver,[7],unable to demonstrate any hydrolysis
same,stability in the presence of rat plasma,Stability in rat plasma,stable
same,stability in aqueous medium at pH 1,[2]; 50°C,unable to demonstrate any hydrolysis
same,stability in aqueous medium at pH 11,[2]; 50°C,unable to demonstrate any hydrolysis
same,"protection in ex vivo working heart (+dP/dt), in words",[6],did not protect
